Reference: patent publication EP0136586A2, “Novel corticoid derivatives and process for production thereof” (priority 1983, dated 1985)

Experiments:
edema = experiment: Topical anti-inflammatory activity (croton oil ear edema); type: in vivo, Male mice of ddY-strain; conditions: for Anti-inflammatory activity ratio (A): ratio against clobetasol 17-propionate (=1), linear regression parallel test method, edema-repressing rate, topical application to mouse ear with croton oil, 5th hour after application; for R=A/B: anti-inflammatory activity ratio (A) divided by thymolytic activity ratio (B)
Description: 0.9 % sodium chloride, 0.4 % Tween 80, 0.5 % carboxymethyl cellulose and 0.9 % benzyl alcohol are dissolved or suspended in distilled water, which is used as a suspending medium. The compounds to be tested are dissolved in a mixture of the suspending medium : pyridine : diethyl ether = 1 : 4 : 5 and mixed with equal volume of diethyl ether containing 10 % croton oil and the mixture is used as the test liquid. Commercially available felt having a thickness of 5 mm is cut in 7mm x 7 mm square and adhered to ring tweezers using alkyl-a-cyanoacrylate. The felt is soaked in the test liquid and the liquid is applied to the right ear of the mouse by rubbing it with the felt at a fixed pressure without anesthesia. The left ear is left untreated. At 5th hours after application, mice are killed and both of the ears are cut and weighed. The rate (%) of increase in the weight of right ear against that of left ear is calculated as the edema ratio. Edema ratios obtained on the test compounds are compared with those obtained on control and edema-repressing rate is obtained.

thymus gland = conditions: rat, in vivo, sc, 11520 min
Description: 2) Experiment on thymolytic action
The compounds to be tested are dissolved in a liquid consisting of croton oil : cotton seed oil : ethanol = 1:89:10 and the solution is used for injection.
The rats are anesthesized by inhalation of ether and 20 ml of air are subcutaneously injected into hypodermic organ at the back of the rats using a thin injection needle to form an oval-shaped air cavity. After the rats recovered from anesthesia they are kept on normal food and water. At 8th days after injection, rats are killed by depletion and dissected. The thymus gland is taken out and the wet weight is measured. Thymus weights obtained on the test compounds are divided with those obtained on control, and thymus gland atrophy rate is obtained.
In each of the experiments on anti-inflammatory activity and thymolytic action, clobetasol 17-propionate and betamethasone 17,21-dipropionate are used standard compounds and anti-inflammatory activity ratio and thymolytic activity ratio against clobetasol 17-propionate are calculated using linear regression parallel test method.

Compound | Anti-inflammatory activity ratio (A) (edema) | Thymolytic activity ratio (B) (thymus gland) | R=A/B (edema)
21-chloro-9a-fluoro-16a-methyl-l,4-pregnadiene-11β,17α-diol-3,6,20-trione 17a-methyl carbonate [Example 8] | 0.51 |  | 
21-chloro-9α-fluoro-16β-mathyl-1,4-pregnadiene-11β,17α-diol-3,6,20-trione 17α-methyl carbonate [Example 2] | 3.0 | 0.018 | 
21-chloro-9α-fluoro-16β-methyl-1,4-pregnadiene-11β,17α-diol-3,6,20-trione 17a-ethyl carbonate [Example 4] | 1.3 | 0.048 | 
CCC(=O)OCC(=O)[C@@]1(OC(=O)CC)[C@@H](C)C[C@H]2[C@@H]3CCC4=CC(=O)C=C[C@]4(C)[C@@]3(F)[C@@H](O)C[C@@]21C [Betamethasone 17,21-dipropionate, betamethasone 17,21-dipropionate, reference compound] | 0.080 | 0.030 | 2.7
CCC(=O)O[C@]1(C(=O)CCl)[C@@H](C)C[C@H]2[C@@H]3CCC4=CC(=O)C=C[C@]4(C)[C@@]3(F)[C@@H](O)C[C@@]21C [Clobetasol 17-propionate, clobetasol 17-propionate, reference compound] |  | 1 | 1
CCC(=O)O[C@]1(C(=O)CCl)[C@@H](C)C[C@H]2[C@@H]3CC(=O)C4=CC(=O)C=C[C@]4(C)[C@@]3(F)[C@@H](O)C[C@@]21C [Comparative Example 1, 21-chloro-9α-fluoro-16β-methyl-1,4-pregnadiene-11S,17a-diol-3,6,20-trione 17a-propionate, reference compound] | 0.53 | 0.29 | 1.8
COC(=O)O[C@]1(C(=O)CCl)[C@@H](C)C[C@H]2[C@@H]3CCC4=CC(=O)C=C[C@]4(C)[C@@]3(F)[C@@H](O)C[C@@]21C [Comparative Example 2, 21-chloro-9α-fluoro-16β-methyl-1,4-pregnadiene-11β,17α-diol-3,20-dione 17a-methyl carbonate, reference compound] | 0.96 | 1.2 | 0.8
CCCOC(=O)O[C@]1(C(=O)CCl)[C@@H](C)C[C@H]2[C@@H]3CC(=O)C4=CC(=O)C=C[C@]4(C)[C@@]3(F)[C@@H](O)C[C@@]21C [Example 6, 21-chloro-9α-fluoro-16β-methyl-1,4-pregnadiene-11β,17α-diol-3,6,20-trione 17a-propyl carbonate] | 0.74 | 0.24 | 3.1
COC(=O)CCC(=O)O[C@]1(C(=O)CCl)[C@@H](C)C[C@H]2[C@@H]3CCC4=CC(=O)C=C[C@]4(C)[C@@]3(F)[C@@H](O)C[C@@]21C [Example 12, 21-chloro-9α-fluoro-16β-methyl-1,4-pregnadiene-11β,17α-diol-3,20-dione 17a-(6-methoxycarbonyl propionate)] | 1.3 | 0.072 | 18
COC(=O)CCC(=O)O[C@]1(C(=O)CCl)[C@@H](C)C[C@H]2[C@@H]3CC(=O)C4=CC(=O)C=C[C@]4(C)[C@@]3(F)[C@@H](O)C[C@@]21C [Example 13, 21-chloro-9α-fluoro-16β-methyl-1,4-pregnadiene-11β,17α-diol-3,6,20-trione 17α-(β-methoxycarbonyl propionate)] | 1.0 | <0.01 | >100
COC(=O)CCC(=O)O[C@]1(C(=O)CCl)[C@H](C)C[C@H]2[C@@H]3CCC4=CC(=O)C=C[C@]4(C)[C@@]3(F)[C@@H](O)C[C@@]21C [Example 14, 21-chloro-9α-fluoro-16α-msthyl-1,4-pregnadiene-11β,17α-diol-3,20-dione 17α-(β-methoxycarbonyl propionate)] | 0.2 | <0.01 | > 20
CCOC(=O)CCCC(=O)O[C@]1(C(=O)CCl)[C@@H](C)C[C@H]2[C@@H]3CCC4=CC(=O)C=C[C@]4(C)[C@@]3(F)[C@@H](O)C[C@@]21C [Example 15, 21-chloro-9α-fluoro-16β-methyl-1,4-pregnadiene-11β,17α-diol-3,20-dione 17a-(y-ethoxycarbonyl butyrate)] | 0.68 | 0.012 | 57
CCOC(=O)CCC(=O)O[C@]1(C(=O)CCl)[C@@H](C)C[C@H]2[C@@H]3CCC4=CC(=O)C=C[C@]4(C)[C@@]3(F)[C@@H](O)C[C@@]21C [Example 17, 21-chloro-9α-fluoro-16β-methyl-1,4-pregnadien-11β,17α-diol-3,20-dione 17α-(β-ethoxycarbonyl propionate)] | 0.56 | 0.007 | 80
